Measurements: article PMC7796460, “Relation of Metal-Binding Property and Selective Toxicity of 8-Hydroxyquinoline Derived Mannich Bases Targeting Multidrug Resistant Cancer Cells” (Cancers, 2021)
Like-named read-outs stand apart in the source and are kept apart here.

Tests used:
MES-SA cells = experiment: MTT viability assay, MES-SA; assay type: cell-based, human; details: for IC50: Homo sapiens, MES-SA; for Effect of co-administration of CuCl2 on toxicity: parental MES-SA, increasing concentrations of CuCl2, MTT 72 h (Figure 2I-L)
From the text: (§1) MDCK II canine kidney cells, A431 epidermoid carcinoma cells, the human uterine sarcoma cell lines MES-SA and the doxorubicin selected MES-SA-Dx5 were obtained from ATCC (MDCK II: No. CRL-2936™, A431: No. CRL-1555™, MES-SA: No. CRL-1976™, MES-SA/Dx5: No. CRL-1977™). ABCB1 was expressed in A431 and MES-SA cells using lentiviral transduction. The human cervix carcinoma cell line KB-3-1 and the vinblastine selected KB-v1were kind gifts from Dr. Michael M. Gottesman, National Institutes of Health. The phenotype of the resistant cells was verified using cytotoxicity assays. MDCK-B1 and MDCK-MM were established by the Sleeping Beauty transposon-based gene delivery system. OVCAR-8 and NCI-ADRres cells (obtained from the Division of Cancer Treatment and Diagnosis (DCTD) Tumor Repository (National Cancer Institute, Frederick, MD, USA)) were cultivated in RPMI-1640 (Sigma Aldrich, Budapest, Hungary), and other cell lines were cultivated in Dulbecco’s Modified Eagle Medium (DMEM, Sigma Aldrich, Budapest, Hungary), supplemented with 10% fetal bovine serum, 5 mM glutamine, and 50 unit/mL penicillin and streptomycin (Life Technologies, Carlsbad, CA, USA). All cell lines were cultivated at 37 °C, 5% CO2.
(§2) MTT viability assays were performed as described earlier with minor modifications. Briefly, cells were seeded into 96-well tissue culture plates (Sarstedt, Newton, NC, USA/Orange, Braine-l’Alleud, Belgium) at a density of 5000 cells/well and allowed to attach overnight. Test compounds were added to achieve the required final concentration in a final volume of 100 µL per well. After an incubation period of 72 h, the supernatant was removed and fresh medium containing the MTT reagent (0.083 mg/mL) was added. Incubation with MTT at 37 °C was terminated after 1 h by removing the supernatant and lysing the cells with 100 µL DMSO per well. Viability of the cells was measured spectrophotometrically based on the absorbance values at 540 nm using either a Perkin Elmer Victor X3 or an EnSpire microplate reader. Data were background corrected by subtraction of the signal obtained from unstained cell lysates and normalized to untreated cells. Curves were fitted by Prism software (GraphPad Software Inc., San Diego, CA, USA) using the sigmoidal dose-response model (comparing variable and fixed slopes). […] Significance was calculated using unpaired t-tests; results are given as *: p ≤ 0.05, **: p ≤ 0.01, ***: p ≤ 0.001, ****: p ≤ 0.0001.

MES-SA/B1 cells [1] = experiment: MTT viability assay, MES-SA/B1; assay type: cell-based, human; details: for IC50: Homo sapiens, MES-SA, 72 h, MTT 72 h
From the text: as §1, §2

NCI-ADRres cells = experiment: MTT viability assay, NCI-ADRres; assay type: cell-based; details: for IC50: Homo sapiens, NCI/ADR-RES, 72 h, MTT 72 h; for SR NCI-ADRres: IC50 OVCAR-8 vs. NCI-ADRres
From the text: as §1, §2

KB-3-1 cells = experiment: MTT viability assay, KB-3-1; assay type: cell-based; details: Homo sapiens, KB 3-1, 72 h, MTT 72 h
From the text: as §1, §2

KB-v1 cells = experiment: MTT viability assay, KB-v1; assay type: cell-based; details: Homo sapiens, KB-V1, 72 h, MTT 72 h
From the text: as §1, §2

A431 cells = experiment: MTT viability assay, A431; assay type: cell-based; details: Homo sapiens, A-431, 72 h, MTT 72 h
From the text: as §1, §2

MDCK-MM cells = experiment: MTT viability assay, MDCK-MM (non-functional Pgp); assay type: cell-based, canine; details: for IC50: Canis lupus familiaris, 72 h, MTT 72 h; for SR MDCK-MM: IC50 MDCK vs. MDCK-MM
From the text: as §1, §2

MES-SA/B1 cells [2] = experiment: TXRF intracellular iron levels, MES-SA/B1; assay type: cell-based, human; details: for Intracellular iron levels: MES-SA/B1, 25 µM holo-transferrin 4 h, then 5 µM ligand 8 h (Figure 4A)
Description: (§3) Cells were seeded to 6-well plates in a density of 1.5 Mio cells/well and allowed to attach overnight. Following a washing step with phosphate buffered saline (PBS), cells were incubated in serum free DMEM. For the iron-level measurements, cells were preloaded with 25 µM holo-transferrin for 4 h and, after a washing step with serum free DMEM, cells were incubated with 5 µM of each ligand for 8 h. For the detection of copper levels, cells were treated with 1 µM of the ligands in the presence of 5 µM CuCl2 for 4 h. Following incubation, cells were harvested upon trypsination, washed twice with PBS, counted and the resulting pellets were digested in 20 μL of 30% H2O2, 80 μL of 65% HNO3. 10 μL of 15 µg/mL Ga(NO3)3 (in nitric acid) was added as an internal standard upon digestion for 24 h at room temperature. From the resulting solutions, 2 μL were pipetted on the quartz reflectors used for total-reflection X-ray fluorescence (TXRF) analysis. For the determination of the intracellular Cu content, the TXRF method was used as previously reported. Briefly, all determinations were performed on an Atomika 8030C TXRF spectrometer (Atomika Instruments GmbH, Oberschleissheim, Germany). The stock solution of 1000 mg/L Ga was purchased from Merck (Darmstadt, Germany). The Kα line used for determination of Fe and Cu were at 6.403 and 8.047 keV. […] Significance was calculated using unpaired t-tests; results are given as *: p ≤ 0.05, **: p ≤ 0.01, ***: p ≤ 0.001, ****: p ≤ 0.0001.
(§4) Figure 4 Effect of the compounds on intracellular metal levels. (A) Iron levels of MES-SA (open columns) and MES-SA/B1 cells in absence (dark red squared columns) and presence of Pgp inhibitor Tariquidar (bright red squared columns). Cells were loaded with 25 µM holo-transferrin (4 h), followed by an incubation (8 h) without (ctr) or with 5 µM of ligands Q-1, Q-2, Q-3, and Q-4. […] (B) Cellular copper levels measured following a 4 h co-administration of compounds Q-1, Q-2, Q-3, and Q-4 (1 µM) and CuCl2 (5 µM) in MES-SA (open columns), MES-SA/Dx5 (filled columns) and MES-SA-B1 (squared columns) cells. Significance is given as *: p ≤ 0.05, **: p ≤ 0.01, ***: p ≤ 0.001.

[3] = system: MES-SA, MES-SA/Dx5 and MES-SA/B1 cells; experiment: TXRF intracellular copper levels; assay type: cell-based, human; details: for Intracellular copper levels: 1 µM ligand with 5 µM CuCl2, 4 h (Figure 4B)
Description: as §3, §4

[4] = MTT 72 h, absence of Tariquidar, read-out: IC50 MES-SA
[5] = Table 2, value outside brackets, read-out: MES-SA (toxicity, Table 2)
[6] = presence of 1 µM Tariquidar (values in brackets)
[7] = IC50 MES-SA vs. MES-SA/B1, absence of Tariquidar
[8] = IC50 MES-SA vs. MES-SA/B1, presence of 1 µM Tariquidar (brackets)
[9] = presence of 1 µM Tariquidar (brackets)

Row | SMILES | IC50 (MES-SA cells; [4]) | IC50 (MES-SA cells; [5]) | Effect of co-administration of CuCl2 on toxicity (MES-SA cells) | IC50 (MES-SA/B1 cells [1]; absence of Tariquidar) | IC50 (MES-SA/B1 cells [1]; [6]) | SR MES-SA/B1 (MES-SA/B1 cells [1]; [7]) | SR MES-SA/B1 (MES-SA/B1 cells [1]; [8]) | IC50 (NCI-ADRres cells; absence of Tariquidar) | IC50 (NCI-ADRres cells; [6]) | SR NCI-ADRres (NCI-ADRres cells; absence of Tariquidar) | IC50 (KB-3-1 cells; absence of Tariquidar) | IC50 (KB-3-1 cells; [6]) | IC50 (KB-v1 cells; absence of Tariquidar) | IC50 (KB-v1 cells; [6]) | IC50 (A431 cells; absence of Tariquidar) | IC50 (A431 cells; [6]) | IC50 (MDCK-MM cells; absence of Tariquidar) | IC50 (MDCK-MM cells; [6]) | SR MDCK-MM (MDCK-MM cells; absence of Tariquidar) | SR MDCK-MM (MDCK-MM cells; [9]) | further results
1 | Oc1cccc2cccnc12 [Compound Q-1, 8-Hydroxyquinoline] | 4.19 ± 0.74 µM | 4.19 ± 0.74 µM | increased the toxicity | 3.68 ± 0.95 µM | 4.92 µM | 1.14 | 1.03 | 1.84 ± 0.3 µM | 2.65 µM | 1.88 | 8.59 ± 2.92 µM | 10.9 µM | 8.71 ± 4.43 µM | 10.8 µM | 2.35 ± 0.92 µM | 2.9 µM | 3.34 ± 0.6 µM | 3.59 µM | 0.97 | 0.86 | SR NCI-ADRres (NCI-ADRres cells; [9]): 1.29; Intracellular iron levels (MES-SA/B1 cells [2]): negligible; Intracellular copper levels [3]: significantly increased copper levels
2 | Oc1c(CN2CCOCC2)ccc2cccnc12 [Compound Q-2, 7-(morpho-lino-methyl)quinolin-8-ol] | 6.97 ± 1.75 µM | 6.97 ± 1.75 µM | increased the toxicity | 3.12 ± 0.28 µM | 3.6 µM | 2.23 | 1.29 | 2.84 ± 0.81 µM | 5.41 µM | 1.11 | 9.55 ± 2.55 µM | 11.7 µM | 6.42 ± 2.19 µM | 11.3 µM | 3.31 ± 1.61 µM | 3.18 µM | 9.74 ± 4.04 µM | 9.01 µM | 0.82 | 1.23 | SR NCI-ADRres (NCI-ADRres cells; [9]): 0.61; Intracellular copper levels [3]: significantly increased copper levels
3 | Oc1c(CN2CCCCC2)ccc2cccnc12 [Compound Q-3, 7-(piperidin-1-ylmethyl)quinolin-8-ol] | 4.11 ± 1.2 µM | 4.11 ± 1.2 µM | selective increase in sensitivity | 0.83 ± 0.02 µM | 1.5 µM | 4.95 | 1.99 | 0.68 ± 0.09 µM | 4.22 µM | 4.60 | 6.19 ± 0.12 µM | 6.69 µM | 1.56 ± 0.57 µM | 7.47 µM | 3.91 ± 0.83 µM | 4.09 µM | 6.67 ± 2 µM | 8.45 µM | 1.14 | 1.20 | SR NCI-ADRres (NCI-ADRres cells; [9]): 0.88; Intracellular iron levels (MES-SA/B1 cells [2]): drop of intracellular iron levels below baseline levels; Increase in copper uptake ([3]; 1 µM ligand with 5 µM CuCl2, 4 h): 10 fold
4 | Oc1c(CNCc2ccccc2F)cc(Cl)c2cccnc12 [Compound Q-4, 5-chloro-7-((2-fluorobenzylamino)methyl)quinolin-8-ol] | 2.75 ± 0.46 µM | 2.75 ± 0.46 µM | selective increase in sensitivity | 0.3 ± 0.06 µM | 1.03 µM | 9.24 | 2.16 | 0.14 ± 0.07 µM | 1.15 µM | 7.84 | 1.75 ± 0.62 µM | 2.65 µM | 0.27 ± 0.12 µM | 2.27 µM | 5.82 ± 1.15 µM | 4.54 µM | 5.23 ± 2.11 µM | 6.27 µM | 0.87 | 0.94 | Intracellular iron depletion in the presence of the Pgp inhibitor TQ (MES-SA/B1 cells [2]; MES-SA/B1, 5 µM ligand 8 h, with Tariquidar): abrogated; Intracellular iron levels (MES-SA/B1 cells [2]): marked, selective iron depletion; Intracellular copper levels [3]: significantly increased copper levels
